The experiment has as its system L1210 leukemia ip in BDF1 mice, survival T/C. The experiment in a line: NCI In Vivo Anticancer Drug Screen. Data for tumor model L1210 Leukemia (intraperitoneal) in B6D2F1 (BDF1) mice. As to conditions: endpoint: mean survival time, higher = longer survival. The method in brief:
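Antitumor effect is assessed in tumor-bearing animals. Survival in the compound arm is compared with a vehicle-dosed control arm and expressed as their quotient.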

[1] abbreviates: dose: 100.0 mg/kg/injection, schedule: Q04DX003 (ip), vehicle: saline.
[2] abbreviates: dose: 400.0 mg/kg/injection, schedule: Q04DX003 (ip), vehicle: saline.
Where [3] appears, read: dose: 100.0 mg/kg/injection, schedule: Q04DX003 (ip), vehicle: saline with Tween-80.
The mark [4] stands for this setting: dose: 200.0 mg/kg/injection, schedule: Q04DX003 (ip), vehicle: saline with Tween-80.

Where “and” joins values, the source holds several entries; their conditions need not be identical. Equal values may be shown once. Inconclusive results and toxic doses are left out.

Regarding `Nc1ncc(N)c(N)n1`, the T/C (dose: 21.0 mg/kg/injection, schedule: Q01DX Z (ip), vehicle: saline) was 101 % of control; the T/C (dose: 25.0 mg/kg/injection, schedule: Q01DX Z (ip), vehicle: carboxymethylcellulose (CMC)) was 109 % of control; the T/C (dose: 31.0 mg/kg/injection, schedule: Q01DX Z (ip), vehicle: saline) is 106 % of control; the T/C (dose: 47.0 mg/kg/injection, schedule: Q01DX Z (ip), vehicle: saline) is 121 % of control; the T/C (dose: 50.0 mg/kg/injection, schedule: Q01DX001 (ip), vehicle: saline) is 106 % of control; the T/C (dose: 100.0 mg/kg/injection, schedule: Q01DX001 (ip), vehicle: saline) is 103 % of control. For the same molecule, the T/C is 112 % of control under setting [1]; 116 % of control (dose: 117.0 mg/kg/injection, schedule: Q01DX009 (ip), vehicle: saline with Tween-80); 101 % of control and 118 % of control (dose: 125.0 mg/kg/injection, schedule: Q01DX001 (ip), vehicle: carboxymethylcellulose (CMC)); 110 % of control (dose: 125.0 mg/kg/injection, schedule: Q## X001 (ip), vehicle: carboxymethylcellulose (CMC)); 103 % of control (dose: 200.0 mg/kg/injection, schedule: Q01DX001 (ip), vehicle: saline); 117 % of control (dose: 200.0 mg/kg/injection, schedule: Q04DX003 (ip), vehicle: saline). The T/C is 111 % of control (dose: 240.0 mg/kg/injection, schedule: Q04DX003 (ip), vehicle: saline); 102 % of control and 108 % of control (dose: 250.0 mg/kg/injection, schedule: Q01DX001 (ip), vehicle: carboxymethylcellulose (CMC)); 111 % of control (dose: 250.0 mg/kg/injection, schedule: Q## X001 (ip), vehicle: carboxymethylcellulose (CMC)); 159 % of control (dose: 360.0 mg/kg/injection, schedule: Q01DX Z (ip), vehicle: carboxymethylcellulose (CMC)); 108 % of control (dose: 360.0 mg/kg/injection, schedule: Q04DX003 (ip), vehicle: saline); 97 % of control (dose: 400.0 mg/kg/injection, schedule: Q01DX001 (ip), vehicle: saline). Besides, the T/C reads like this: under setting [2], 118 % of control; (dose: 500.0 mg/kg/injection, schedule: Q01DX001 (ip), vehicle: carboxymethylcellulose (CMC)) 98 % of control and 117 % of control; (dose: 500.0 mg/kg/injection, schedule: Q01DX Z (ip), vehicle: carboxymethylcellulose (CMC)) 160 % of control; (dose: 500.0 mg/kg/injection, schedule: Q## X001 (ip), vehicle: carboxymethylcellulose (CMC)) 105 % of control; (dose: 810.0 mg/kg/injection, schedule: Q01DX Z (ip), vehicle: saline) 86 % of control; (dose: 1000.0 mg/kg/injection, schedule: Q01DX001 (ip), vehicle: carboxymethylcellulose (CMC)) 102 % of control and 112 % of control. In addition, for the setting “dose: 1000.0 mg/kg/injection, schedule: Q## X001 (ip), vehicle: carboxymethylcellulose (CMC)”, the T/C is 98 % of control.
Turning to `O=C(COc1cccc(Cl)c1)NCc1ccccc1NC(=O)c1cccc(S(=O)(=O)F)c1`, the T/C is 90 % of control (dose: 100.0 mg/kg/injection, schedule: Q01DX001 (ip), vehicle: carboxymethylcellulose (CMC)); 95 % of control (dose: 200.0 mg/kg/injection, schedule: Q01DX001 (ip), vehicle: carboxymethylcellulose (CMC)); 95 % of control (dose: 400.0 mg/kg/injection, schedule: Q01DX001 (ip), vehicle: carboxymethylcellulose (CMC)).
On to `CCOC(=N)N1Cc2ccccc2CCc2ccccc2C1`, for which the T/C was 95 % of control (dose: 6.25 mg/kg/injection, schedule: Q01DX009 (ip), vehicle: Klucel (hydroxypropylcellulose) (HPC)); 101 % of control (dose: 12.5 mg/kg/injection, schedule: Q01DX009 (ip), vehicle: Klucel (hydroxypropylcellulose) (HPC)); 101 % of control (dose: 25.0 mg/kg/injection, schedule: Q01DX009 (ip), vehicle: Klucel (hydroxypropylcellulose) (HPC)); 102 % of control (dose: 25.0 mg/kg/injection, schedule: Q04DX002 (ip), vehicle: Klucel (hydroxypropylcellulose) (HPC)); 97 % of control (dose: 50.0 mg/kg/injection, schedule: Q04DX002 (ip), vehicle: Klucel (hydroxypropylcellulose) (HPC)).
Turning to `COC(=O)CCC(=O)Nc1cccc2cnccc12`, the T/C by setting is: under setting [1], 102 % of control; under setting [2], 102 % of control.
As for `c1ccc2c(c1)-c1cccc3c1c-2cc1ccccc13`, the T/C is, setting by setting: (dose: 100.0 mg/kg/injection, schedule: Q01DX001 (ip), vehicle: other) 104 % of control; (dose: 200.0 mg/kg/injection, schedule: Q01DX001 (ip), vehicle: other) 101 % of control; (dose: 400.0 mg/kg/injection, schedule: Q01DX001 (ip), vehicle: other) 95 % of control.
Turning to `COc1ccc(-n2c(=O)c(N=Nc3ccccc3C)c(O)n(-c3ccccc3C)c2=S)cc1`, the T/C is 100 % of control (dose: 37.5 mg/kg/injection, schedule: Q01DX001 (ip), vehicle: Klucel (hydroxypropylcellulose) (HPC)); 97 % of control (dose: 75.0 mg/kg/injection, schedule: Q01DX001 (ip), vehicle: Klucel (hydroxypropylcellulose) (HPC)); 100 % of control (dose: 150.0 mg/kg/injection, schedule: Q01DX001 (ip), vehicle: Klucel (hydroxypropylcellulose) (HPC)).
In the case of `O=C(Oc1ccccc1[N+](=O)[O-])c1ccccc1`, the T/C is 98 % of control (dose: 100.0 mg/kg/injection, schedule: Q04DX003 (ip), vehicle: other); 118 % of control (dose: 200.0 mg/kg/injection, schedule: Q04DX003 (ip), vehicle: other); 93 % of control (dose: 400.0 mg/kg/injection, schedule: Q04DX003 (ip), vehicle: other).
On to `CC(=O)[O][Hg][c]1cc2c(cc1N)C(=O)c1ccccc1-2`, for which the T/C (dose: 12.5 mg/kg/injection, schedule: Q01DX001 (ip), vehicle: carboxymethylcellulose (CMC)) was 102 % of control.
As for `CCOC(=O)C(C#N)C(C)CC(C)C` (stereo not drawn), the T/C reads like this: (dose: 50.0 mg/kg/injection, schedule: Q01DX001 (ip), vehicle: saline with Tween-80) 102 % of control; (dose: 100.0 mg/kg/injection, schedule: Q01DX001 (ip), vehicle: saline with Tween-80) 102 % of control; (dose: 200.0 mg/kg/injection, schedule: Q01DX001 (ip), vehicle: saline with Tween-80) 93 % of control.
Turning to `COC(=O)c1ccccc1SSc1ccccc1C(=O)OC`, the T/C by setting is: under setting [3], 95 % of control; under setting [4], 102 % of control; (dose: 400.0 mg/kg/injection, schedule: Q04DX003 (ip), vehicle: saline with Tween-80) 102 % of control.
On to `CCOC(=O)CC1=NC(C)(C)CC(C)O1` (stereo not drawn), for which the T/C runs as follows: (dose: 100.0 mg/kg/injection, schedule: Q04DX003 (ip), vehicle: saline sonified) 98 % of control; (dose: 200.0 mg/kg/injection, schedule: Q04DX003 (ip), vehicle: saline sonified) 92 % of control; (dose: 400.0 mg/kg/injection, schedule: Q04DX003 (ip), vehicle: saline sonified) 115 % of control.
`Cc1ccc(C(CC(=O)O)CC(=O)O)c(O)c1`: the T/C is 96 % of control (dose: 100.0 mg/kg/injection, schedule: Q01DX009 (ip), vehicle: gum acacia); 95 % of control (dose: 100.0 mg/kg/injection, schedule: Q04DX003 (ip), vehicle: gum acacia); 93 % of control (dose: 200.0 mg/kg/injection, schedule: Q01DX009 (ip), vehicle: gum acacia); 93 % of control (dose: 200.0 mg/kg/injection, schedule: Q04DX003 (ip), vehicle: gum acacia); 88 % of control (dose: 400.0 mg/kg/injection, schedule: Q01DX009 (ip), vehicle: gum acacia); 90 % of control (dose: 400.0 mg/kg/injection, schedule: Q04DX003 (ip), vehicle: gum acacia).
As to `NC(N)=N/C(N)=N\c1nn[nH]n1`, the T/C (dose: 100.0 mg/kg/injection, schedule: Q01DX001 (ip), vehicle: saline sonified) was 96 % of control; the T/C (dose: 100.0 mg/kg/injection, schedule: Q01DX009 (ip), vehicle: saline sonified) was 91 % of control; the T/C (dose: 200.0 mg/kg/injection, schedule: Q01DX001 (ip), vehicle: saline sonified) is 100 % of control; the T/C (dose: 400.0 mg/kg/injection, schedule: Q01DX001 (ip), vehicle: saline sonified) is 93 % of control; the T/C (dose: 400.0 mg/kg/injection, schedule: Q01DX009 (ip), vehicle: saline sonified) is 92 % of control.
Regarding `CN(C)c1ccc(-c2c3cc(O)c(=O)cc-3oc3cc(O)c(O)cc23)cc1`, the T/C was 95 % of control (dose: 50.0 mg/kg/injection, schedule: Q04DX003 (ip), vehicle: saline with Tween-80); 90 % of control under setting [3]; 87 % of control under setting [4].

(Values after PubChem BioAssay AID248 (DTP/NCI, 2004).)
